Source: patent publication US10119168B2, “Methods for the treatment of kidney fibrosis” (priority 2014, dated 2018)

Key:
[1] = tested on: kidney fibrosis after FA injection in mice; assay: Enalapril treatment in folic acid (FA) nephropathy model of kidney fibrosis (histology, qRT-PCR); type: in vivo, mouse; details: day 14
Protocol: Conversely, to test if the markers reflect recovery from fibrosis interventions on the renin-angiotensin system were used.
Mice were sacrificed at 1, 2, 3, 7 and 14 days following administration. […] All mice were sacrificed at 14 days.
(§1) Formalin fixed, paraffin embedded kidney sections were Masson Trichrome's stained and evaluated by a renal pathologist under a light microscope in blinded fashion relative to sample group. Percent area of fibrosis relative to the total section area was evaluated. Sirius red staining of the […] sections was performed at the Michigan State University Investigative Histopathology Laboratory.
(§2) Total RNA was extracted from frozen kidney tissue using TRIzol reagent (Invitrogen). Following RNA concentration measurement by NanoDrop spectrophotometer (Thermo Fischer Scientific), 1 μg RNA was used for cDNA preparation using QuantiTect Reverse Transcription Kit from Qiagen (Valencia, Calif.). qRT-PCR using QuantiFast SYBR Green PCR Kit (Qiagen) was performed in 384-well plates on an Applied Biosystems 7900HT Fast Real-Time PCR System instrument with the following temperature profile: 3 min enzyme activation at 95° C. followed by 40 cycles of 95° C. for 10 s, and 55° C. for 30 s. Primer pairs used are listed in Supplementary Table 1. Gapdh was used as reference gene for normalization. The SDS 2.4 software (Applied Biosystems) was used to compute the threshold cycle (Cq) and the relative expression for an mRNA was assessed using the 2^−ΔCq method.

mouse liver = assay: ANIT diet liver fibrosis model (Picrosirius red staining, qRT-PCR); details: ANIT diet 4 weeks vs control diet
Excerpt: Fibrosis is a universal pathological finding for chronic diseases in any organ(14) and it would be useful to identify biomarkers of fibrosis that are specific for an organ or be able to indicate their origin.
Animals were housed in an Association for Assessment and Accreditation of Laboratory Animal Care International-accredited facility at Michigan State University and all procedures were approved by the Michigan State University Institutional Animal Care and Use Committee.
as §1, §2

[2] = enalapril 200 mg/l in drinking water after FA injection, kidney qRT-PCR vs control

Compound	kidney fibrosis development (histological assessment) ([1]; enalapril 200 mg/l continuously in drinking water after FA injection, vs plain water control)	reduction of collagen 1a1 mRNA expression ([1]; enalapril 200 mg/l in drinking water after FA injection, kidney qRT-PCR) [fold]	Cdh11 gene expression level [1, 2]	Gabrp gene expression level [1, 2]	Mrc1 gene expression level [1, 2]	Scn7a gene expression level [1, 2]	Smoc2 gene expression level [1, 2]	Mgp gene level (mouse liver)	Scn7a gene level (mouse liver)	Sytl2 gene level (mouse liver)	collagen 1a1 gene expression (mouse liver)
CCOC(=O)[C@H](CCc1ccccc1)N[C@@H](C)C(=O)N1CCC[C@H]1C(=O)O [enalapril]	reduced kidney fibrosis development	~3	significant (p<0.05) decreases	significant (p<0.05) decreases	significant (p<0.05) decreases	significant (p<0.05) decreases	significant (p<0.05) decreases	–	–	–	–
S=C=Nc1cccc2ccccc12 [ANIT, α-naphthylisothiocyanate]	–	–	–	–	–	–	–	significantly higher (p<0.05) gene levels	significantly higher (p<0.05) gene levels	significantly higher (p<0.05) gene levels	significantly increased collagen 1a1 gene expression
